Experimental data as given in patent US20220370440A1 (Lead Discovery Center GmbH, priority 2018, published 2022).

Assays:
EGFR T790ML858R = EGFR T790ML858R (Homo sapiens, UniProt P00533, L858R/T790M); assay: EGFR T790ML858R Lance assay; type: biochemical
Experimental: (§1) Inhibition is indicated as […] [nM] (“−”=not measured). Compounds having an activity designated as “A” provided an IC50≤100 nM; compounds having an activity designated as “B” provided an 100 nM<IC50≤500 nM; compounds having an activity designated as “C” provided an 500 nM<IC50≤1000 nM; compounds having an activity designated as “D” provided an 1000 nM<IC50≤100000 nM; and compounds having an activity designated as “E” provided an IC50>10000 nM.

H1975 = H1975 CellTiter-Glo; type: cell-based; settings: Homo sapiens, NCI-H1975; 72 h compound incubation; read-out: H1975 CTG IC50
In short: (§2)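 72 h compound exposure after 24 h attachment, 37° C./5% CO2; CellTiter-Glo ATP luminescence read-out; IC50 by dose-response fit; DMSO vehicle and 10 μM Staurosporine as controls; plates accepted only if Z′ ≥0.5.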

[1] = target: EGFR Exon 20 INSNPH Ba/F3 (Homo sapiens, UniProt P00533, DUP771-773, cells depend on it); assay: EGFR Exon 20 INSNPH Ba/F3 CellTiter-Glo; type: cell-based; settings: CellTiter-Glo, 72 h, read-out: EGFR Exon 20 INSNPH Ba/F3 CTG IC50
EGFR Exon 20 INSNPH Ba/F3, sequence (P00533 with tags, fused parts or gaps DUP771-773): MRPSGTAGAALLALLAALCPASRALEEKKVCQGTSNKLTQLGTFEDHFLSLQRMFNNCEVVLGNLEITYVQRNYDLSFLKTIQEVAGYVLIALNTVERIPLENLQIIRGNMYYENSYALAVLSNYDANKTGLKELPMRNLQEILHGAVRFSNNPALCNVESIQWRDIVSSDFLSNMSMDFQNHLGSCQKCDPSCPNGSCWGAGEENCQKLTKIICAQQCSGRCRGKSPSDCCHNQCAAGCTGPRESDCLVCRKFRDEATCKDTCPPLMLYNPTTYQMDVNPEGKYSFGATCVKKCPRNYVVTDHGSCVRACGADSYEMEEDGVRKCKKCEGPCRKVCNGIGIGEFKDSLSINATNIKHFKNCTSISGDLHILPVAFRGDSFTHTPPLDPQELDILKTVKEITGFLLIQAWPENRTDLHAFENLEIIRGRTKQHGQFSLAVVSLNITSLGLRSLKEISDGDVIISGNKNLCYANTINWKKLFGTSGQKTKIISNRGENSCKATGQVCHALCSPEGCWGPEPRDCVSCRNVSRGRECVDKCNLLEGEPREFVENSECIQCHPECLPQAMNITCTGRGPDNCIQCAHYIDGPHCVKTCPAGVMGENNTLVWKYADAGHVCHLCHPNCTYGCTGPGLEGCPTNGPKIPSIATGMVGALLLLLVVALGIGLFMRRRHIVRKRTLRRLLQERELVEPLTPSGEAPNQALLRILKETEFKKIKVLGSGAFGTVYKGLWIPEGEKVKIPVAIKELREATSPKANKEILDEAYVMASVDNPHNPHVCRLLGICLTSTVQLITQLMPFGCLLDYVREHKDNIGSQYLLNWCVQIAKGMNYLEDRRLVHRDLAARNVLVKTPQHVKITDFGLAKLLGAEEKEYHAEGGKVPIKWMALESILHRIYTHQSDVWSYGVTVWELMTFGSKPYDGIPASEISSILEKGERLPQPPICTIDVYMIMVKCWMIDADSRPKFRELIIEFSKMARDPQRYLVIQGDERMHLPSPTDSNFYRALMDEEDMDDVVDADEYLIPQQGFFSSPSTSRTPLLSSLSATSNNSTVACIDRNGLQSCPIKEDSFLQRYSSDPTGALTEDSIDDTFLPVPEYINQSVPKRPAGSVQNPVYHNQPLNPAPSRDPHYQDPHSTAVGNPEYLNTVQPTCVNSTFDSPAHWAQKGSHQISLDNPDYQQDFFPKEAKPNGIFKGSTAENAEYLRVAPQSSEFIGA
In short: (§3)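 Ba/F3 cells were seeded, left 24 h at 37 °C/5% CO2, then exposed to compound dilutions in DMSO for 72 h. Viability was read as ATP luminescence (CellTiter-Glo) and IC50 fitted from dose–response curves; DMSO and 10 μM staurosporine defined the controls, and plates needed Z′ ≥0.5.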

[2] = target: Her2 Exon 20 INSYVMA Ba/F3 (Homo sapiens, UniProt P04626, DUP772-775, cells depend on it); assay: Her2 Exon 20 INSYVMA Ba/F3 CellTiter-Glo; type: cell-based; settings: CellTiter-Glo, 72 h, read-out: Her2 Exon 20 INSYVMA Ba/F3 CTG IC50
Her2 Exon 20 INSYVMA Ba/F3, sequence (P04626 with tags, fused parts or gaps DUP772-775): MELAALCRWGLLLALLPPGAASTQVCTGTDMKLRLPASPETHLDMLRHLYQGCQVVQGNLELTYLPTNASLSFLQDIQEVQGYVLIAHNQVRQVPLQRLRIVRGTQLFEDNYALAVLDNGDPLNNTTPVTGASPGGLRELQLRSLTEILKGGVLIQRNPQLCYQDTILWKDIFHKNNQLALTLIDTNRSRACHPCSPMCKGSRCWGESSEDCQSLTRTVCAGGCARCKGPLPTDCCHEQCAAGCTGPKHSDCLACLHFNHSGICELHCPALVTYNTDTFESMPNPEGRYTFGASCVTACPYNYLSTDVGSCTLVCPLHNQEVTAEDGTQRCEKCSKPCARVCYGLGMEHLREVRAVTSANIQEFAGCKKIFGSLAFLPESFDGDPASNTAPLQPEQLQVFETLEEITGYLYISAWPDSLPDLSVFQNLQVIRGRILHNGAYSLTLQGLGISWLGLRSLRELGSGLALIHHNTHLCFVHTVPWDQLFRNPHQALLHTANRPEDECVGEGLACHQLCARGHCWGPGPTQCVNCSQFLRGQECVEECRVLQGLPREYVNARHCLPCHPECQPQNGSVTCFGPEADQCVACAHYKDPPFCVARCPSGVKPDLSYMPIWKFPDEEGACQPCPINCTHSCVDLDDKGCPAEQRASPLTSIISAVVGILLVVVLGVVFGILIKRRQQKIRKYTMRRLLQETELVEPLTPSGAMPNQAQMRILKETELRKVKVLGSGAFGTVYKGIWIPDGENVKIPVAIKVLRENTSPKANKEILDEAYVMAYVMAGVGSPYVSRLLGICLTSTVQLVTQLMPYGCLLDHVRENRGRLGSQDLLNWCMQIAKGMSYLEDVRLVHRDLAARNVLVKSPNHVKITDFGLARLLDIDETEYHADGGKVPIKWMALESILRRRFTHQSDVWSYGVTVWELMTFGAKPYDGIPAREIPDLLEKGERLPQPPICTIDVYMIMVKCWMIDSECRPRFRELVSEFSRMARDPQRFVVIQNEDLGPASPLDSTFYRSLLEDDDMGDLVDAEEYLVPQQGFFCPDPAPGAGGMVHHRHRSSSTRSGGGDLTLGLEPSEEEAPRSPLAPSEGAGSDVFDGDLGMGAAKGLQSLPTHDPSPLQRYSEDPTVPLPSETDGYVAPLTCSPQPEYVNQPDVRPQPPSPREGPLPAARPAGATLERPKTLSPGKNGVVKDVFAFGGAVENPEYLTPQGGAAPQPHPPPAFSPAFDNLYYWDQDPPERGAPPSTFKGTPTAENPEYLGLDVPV
In short: as §3

EGFR wt = EGFR wt (Homo sapiens, UniProt P00533); assay: EGFR wt Lance assay; type: biochemical
EGFR wt, sequence (P00533 25-1210): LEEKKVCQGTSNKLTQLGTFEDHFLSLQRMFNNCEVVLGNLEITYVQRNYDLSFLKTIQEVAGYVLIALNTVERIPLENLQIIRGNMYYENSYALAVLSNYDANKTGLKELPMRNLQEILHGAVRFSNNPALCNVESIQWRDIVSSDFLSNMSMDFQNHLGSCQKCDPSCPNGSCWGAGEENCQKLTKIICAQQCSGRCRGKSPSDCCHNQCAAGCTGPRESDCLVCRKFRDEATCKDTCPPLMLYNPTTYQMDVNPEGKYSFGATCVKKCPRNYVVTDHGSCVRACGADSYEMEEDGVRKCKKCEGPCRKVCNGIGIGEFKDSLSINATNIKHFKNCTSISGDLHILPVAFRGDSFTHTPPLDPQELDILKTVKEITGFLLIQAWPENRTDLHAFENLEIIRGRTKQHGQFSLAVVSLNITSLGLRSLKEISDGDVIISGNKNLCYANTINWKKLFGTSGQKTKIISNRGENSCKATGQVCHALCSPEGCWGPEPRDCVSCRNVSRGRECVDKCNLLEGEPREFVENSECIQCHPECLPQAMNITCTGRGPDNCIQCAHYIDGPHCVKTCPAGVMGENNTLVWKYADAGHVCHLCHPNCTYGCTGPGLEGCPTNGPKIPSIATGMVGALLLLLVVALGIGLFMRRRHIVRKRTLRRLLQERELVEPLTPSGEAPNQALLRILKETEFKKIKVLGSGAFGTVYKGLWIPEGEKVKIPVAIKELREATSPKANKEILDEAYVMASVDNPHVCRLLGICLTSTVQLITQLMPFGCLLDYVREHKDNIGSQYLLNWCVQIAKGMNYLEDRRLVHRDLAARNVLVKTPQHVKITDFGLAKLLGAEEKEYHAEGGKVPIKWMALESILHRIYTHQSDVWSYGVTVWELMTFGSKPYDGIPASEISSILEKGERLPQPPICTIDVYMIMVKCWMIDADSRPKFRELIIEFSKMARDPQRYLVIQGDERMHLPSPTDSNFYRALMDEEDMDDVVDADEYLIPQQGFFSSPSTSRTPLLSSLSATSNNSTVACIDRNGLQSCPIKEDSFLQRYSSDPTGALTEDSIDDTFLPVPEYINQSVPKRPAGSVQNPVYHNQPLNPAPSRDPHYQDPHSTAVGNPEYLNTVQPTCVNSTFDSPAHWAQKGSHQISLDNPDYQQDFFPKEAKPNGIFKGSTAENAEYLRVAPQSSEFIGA
Experimental: as §1

A431 = A431 CellTiter-Glo; type: cell-based; settings: Homo sapiens, A-431; 72 h compound incubation; read-out: A431 CTG IC50
In short: as §2

H1781 = H1781 CellTiter-Glo; type: cell-based; settings: NCI-H1781; 72 h compound incubation; read-out: H1781 CTG IC50
Experimental: 2. Measurement of Cellular Activity
The CellTiter-Glo Luminescent Cell Viability Assay (Promega) is a homogeneous method of determining the number of viable cells in culture. It is based on quantification of ATP, indicating the presence of metabolically active cells. Cells are seeded on day 1 at cell numbers that assure assay linearity and optimal signal intensity. After incubation for 24 h in humidified chambers at 37° C. and 5% CO2, compounds in DMSO are added at different concentrations. Cells are further incubated for 72 h at 37° C. and 5% CO2. Cells treated with the compound vehicle DMSO are used as positive controls and cells treated with 10 μM Staurosporine serve as negative controls. At day 5 the CellTiter Glo Reagent is prepared according to the instructions of the kit (Promega Inc.): Reagent is mixed 1:1 with cell culture medium. Thereon, mixture and assay plates are equilibrated at room temperature for 20 min. Equal volumes of the reagent-medium-mixture is added to the volume of culture medium present in each well. The plates are mixed at ˜200 rpm for 2 minutes on an orbital shaker. The microplates are then incubated at room temperature for 10 minutes for stabilization of the luminescent signal. Following incubation the luminescence is recorded on a Victor microplate reader (Perkin Elmer) using a 200 ms integration time. The data is then analyzed with Excel using the XLFIT Plugin (dose response Fit 205) for IC50-determination. As quality control the Z′-factor is calculated from 16 positive and negative control values. Only assay results showing a Z′-factor ≥0.5 are used for further analysis.
as §1

HER2 INS YVMA = target: T1, HER2 INS YVMA (Homo sapiens, UniProt P04626, INS775YVMA); assay: Lance Kinase Activity Assay, HER2 INS YVMA (Her2 Exon 20 INSYVMA Lance); type: biochemical; settings: biochemical Lance assay
T1 construct: purchased DPF
T1 sequence (P04626 with tags, fused parts or gaps INS775YVMA): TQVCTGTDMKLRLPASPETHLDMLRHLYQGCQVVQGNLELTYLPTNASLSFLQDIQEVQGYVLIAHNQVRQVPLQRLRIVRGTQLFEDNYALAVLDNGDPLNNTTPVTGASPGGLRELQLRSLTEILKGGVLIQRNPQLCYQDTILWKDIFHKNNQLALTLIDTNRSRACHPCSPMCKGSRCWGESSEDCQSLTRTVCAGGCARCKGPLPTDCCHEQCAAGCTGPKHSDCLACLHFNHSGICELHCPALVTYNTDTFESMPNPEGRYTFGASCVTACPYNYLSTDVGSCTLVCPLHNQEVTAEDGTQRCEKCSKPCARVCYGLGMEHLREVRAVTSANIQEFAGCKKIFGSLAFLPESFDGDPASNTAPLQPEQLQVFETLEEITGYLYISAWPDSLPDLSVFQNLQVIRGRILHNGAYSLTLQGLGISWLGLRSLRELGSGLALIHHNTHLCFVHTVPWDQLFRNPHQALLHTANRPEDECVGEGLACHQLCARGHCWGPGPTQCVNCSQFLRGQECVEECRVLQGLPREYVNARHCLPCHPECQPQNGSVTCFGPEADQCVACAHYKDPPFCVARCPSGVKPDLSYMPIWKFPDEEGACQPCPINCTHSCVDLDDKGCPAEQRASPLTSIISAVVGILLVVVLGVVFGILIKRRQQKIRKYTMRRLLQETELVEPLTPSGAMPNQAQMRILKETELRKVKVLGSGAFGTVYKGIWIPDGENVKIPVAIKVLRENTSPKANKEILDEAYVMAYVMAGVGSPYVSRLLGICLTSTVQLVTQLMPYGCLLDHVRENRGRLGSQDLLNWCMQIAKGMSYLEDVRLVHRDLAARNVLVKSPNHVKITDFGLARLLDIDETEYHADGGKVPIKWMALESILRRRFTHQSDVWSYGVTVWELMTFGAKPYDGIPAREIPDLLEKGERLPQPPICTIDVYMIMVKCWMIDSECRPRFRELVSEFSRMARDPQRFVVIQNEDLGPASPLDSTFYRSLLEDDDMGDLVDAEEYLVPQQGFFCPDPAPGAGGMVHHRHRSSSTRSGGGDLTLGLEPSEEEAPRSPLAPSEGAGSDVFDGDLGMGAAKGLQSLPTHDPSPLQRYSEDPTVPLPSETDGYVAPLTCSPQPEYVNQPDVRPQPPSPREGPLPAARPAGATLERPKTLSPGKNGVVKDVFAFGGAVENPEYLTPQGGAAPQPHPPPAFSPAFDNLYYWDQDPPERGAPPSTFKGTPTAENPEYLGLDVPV
In short: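 IC50 was fitted to sigmoidal curves of TR-FRET signal (665 and 615 nm emission after 340 nm excitation) from an Eu anti-phospho antibody binding the phosphorylated ULight peptide. The ATP-started reaction ran 1 h at RT and was then quenched with 10 mM EDTA plus antibody for a further 1 h. Compounds were tested as 8-point, 3-fold dilutions.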

[3] = Metabolic stability in mouse liver microsomes without cofactor NADPH; type: in vitro ADME; settings: 3 μM test compound, mouse liver microsomes, without NADPH, 50 min, 37° C., LC-MS/MS
In short: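 Cofactor-free incubation: no NADPH added to mouse liver microsomes, with compound at 3 μM and 37° C. Remaining parent was quantified by LC-MS/MS at time points up to 50 minutes to track depletion.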

| Compound | IC50 (EGFR T790ML858R) | IC50 (H1975) | GI50 [1] | GI50 [2] | IC50 (EGFR wt) | IC50 (A431) | IC50 (H1781) | IC50 (HER2 INS YVMA) | Stability in presence of mouse liver microsomes without cofactor NADPH [% remaining after 50 min] [3] |
| --- | --- | --- | --- | --- | --- | --- | --- | --- | --- |
| C=CC(=O)Nc1cc(-c2c(-c3ccc(CN4CCN(C)CC4)cc3)[nH]c3nccc(Cl)c23)ccc1C [Example 1, N-(5-(4-chloro-2-(4-((4-methylpiperazin-1-yl)methyl)phenyl)-1H-pyrrolo[2,3-b]pyridin-3-yl)-2-methylphenyl)acrylamide 2,2,2-trifluoroacetate] | ≤ 100 nM | ≤ 100 nM | ≤ 100 nM | 100 to 500 nM | ≤ 100 nM | 100 to 500 nM | 100 to 500 nM | ≤ 100 nM | >99 % remaining after 50 min |
| C=CC(=O)Nc1cc(-c2c(-c3ccc(C4CCN(C)CC4)cc3)[nH]c3nccc(Cl)c23)ccc1C [Example 3, N-(5-(4-chloro-2-(4-(1-methylpiperidin-4-yl)phenyl)-1H-pyrrolo[2,3-b]pyridin-3-yl)-2-methylphenyl)acrylamide] | ≤ 100 nM | ≤ 100 nM | ≤ 100 nM | ≤ 100 nM | ≤ 100 nM | 100 to 500 nM | 100 to 500 nM | ≤ 100 nM | >99 % remaining after 50 min |
| C=CC(=O)Nc1cc(-c2c(-c3ccc(CCN(C)C)cc3)[nH]c3nccc(Cl)c23)ccc1C [Example 4, N-(5-(4-chloro-2-(4-(2-(dimethylamino)ethyl)phenyl)-1H-pyrrolo[2,3-b]pyridin-3-yl)-2-methylphenyl)acrylamide] | ≤ 100 nM | ≤ 100 nM | 100 to 500 nM | 100 to 500 nM | ≤ 100 nM | 100 to 500 nM | 100 to 500 nM | ≤ 100 nM | >99 % remaining after 50 min |
| C=CC(=O)Nc1cc(-c2c(-c3ccc(CN(C)C)cc3)[nH]c3nccc(Cl)c23)ccc1C [Example 10, N-(5-(4-chloro-2-(4-((dimethylamino)methyl)phenyl)-1H-pyrrolo[2,3-b]pyridin-3-yl)-2-methylphenyl)acrylamide] | ≤ 100 nM | ≤ 100 nM | ≤ 100 nM | ≤ 100 nM | ≤ 100 nM | 500 to 1000 nM | 100 to 500 nM | ≤ 100 nM | >99 % remaining after 50 min |
| C=CC(=O)Nc1cc(-c2c(-c3ccc(OCCCN(C)C)cc3)[nH]c3nccc(Cl)c23)ccc1C [Example 13, N-(5-(4-chloro-2-(4-(3-(dimethylamino)propoxy)phenyl)-1H-pyrrolo[2,3-b]pyridin-3-yl)-2-methylphenyl)acrylamide] | ≤ 100 nM | ≤ 100 nM | 100 to 500 nM | 100 to 500 nM | ≤ 100 nM | 100 to 500 nM | 100 to 500 nM | ≤ 100 nM | 95 % remaining after 50 min |
| C=CC(=O)Nc1cc(-c2c(-c3ccc(N4CCN(S(=O)(=O)CC)CC4)cc3)[nH]c3nccc(Cl)c23)ccc1C [Example 15, N-(5-(4-chloro-2-(4-(4-(ethylsulfonyl)piperazin-1-yl)phenyl)-1H-pyrrolo[2,3-b]pyridin-3-yl)-2-methylphenyl)acrylamide] | ≤ 100 nM | ≤ 100 nM | 100 to 500 nM | 100 to 500 nM | ≤ 100 nM | 100 to 500 nM | 500 to 1000 nM | 100 to 500 nM | >99 % remaining after 50 min |
| C=CC(=O)Nc1cc(-c2c(-c3cccc(C(=O)NC4CCN(Cc5ccccc5)CC4)c3)[nH]c3nccc(Cl)c23)ccc1C [Example 48, 3-(3-(3-acrylamido-4-methylphenyl)-4-chloro-1H-pyrrolo[2,3-b]pyridin-2-yl)-N-(1-benzylpiperidin-4-yl)benzamide] | ≤ 100 nM | ≤ 100 nM | 100 to 500 nM | 100 to 500 nM | ≤ 100 nM | 100 to 500 nM | 100 to 500 nM | ≤ 100 nM |  |
| C=CC(=O)Nc1cc(-c2c(-c3cccc(CN(C)C)c3)[nH]c3ncc(C(=O)OC(C)C)cc23)ccc1C [Example 187, isopropyl 3-(3-acrylamido-4-methylphenyl)-2-(3-((dimethylamino)methyl)phenyl)-1H-pyrrolo[2,3-b]pyridine-5-carboxylate] | ≤ 100 nM | 100 to 500 nM | 100 to 500 nM | 100 to 500 nM | ≤ 100 nM | 1000 to 100000 nM |  | ≤ 100 nM | >99 % remaining after 50 min |

More lines, now with the values ahead:

| IC50 (EGFR T790ML858R) | IC50 (H1975) | GI50 [1] | GI50 [2] | IC50 (EGFR wt) | IC50 (A431) | IC50 (H1781) | IC50 (HER2 INS YVMA) | Stability in presence of mouse liver microsomes without cofactor NADPH [% remaining after 50 min] [3] | Compound |
| --- | --- | --- | --- | --- | --- | --- | --- | --- | --- |
| ≤ 100 nM | ≤ 100 nM | ≤ 100 nM | ≤ 100 nM | ≤ 100 nM | 100 to 500 nM | 100 to 500 nM | ≤ 100 nM | >99 % remaining after 50 min | C=CC(=O)Nc1cc(-c2c(-c3ccc(N4CCN(C)CC4)cc3)[nH]c3nccc(Cl)c23)ccc1C [Example 2, N-(5-(4-chloro-2-(4-(4-methylpiperazin-1-yl)phenyl)-1H-pyrrolo[2,3-b]pyridin-3-yl)-2-methylphenyl)acrylamide] |
| ≤ 100 nM | ≤ 100 nM | 100 to 500 nM | 100 to 500 nM | ≤ 100 nM | > 10000 nM | > 10000 nM | ≤ 100 nM | >99 % remaining after 50 min | C=CC(=O)Nc1cc(-c2c(-c3ccc(CN4CCOCC4)cc3)[nH]c3nccc(Cl)c23)ccc1C [Example 5, N-(5-(4-chloro-2-(4-(morpholinomethyl)phenyl)-1H-pyrrolo[2,3-b]pyridin-3-yl)-2-methylphenyl)acrylamide] |
| ≤ 100 nM | ≤ 100 nM | 100 to 500 nM | 100 to 500 nM | ≤ 100 nM | 100 to 500 nM | 100 to 500 nM | ≤ 100 nM | >99 % remaining after 50 min | C=CC(=O)Nc1cc(-c2c(-c3ccc(N4CCN(C(C)=O)CC4)cc3)[nH]c3nccc(Cl)c23)ccc1C [Example 8, N-(5-(2-(4-(4-acetylpiperazin-1-yl)phenyl)-4-chloro-1H-pyrrolo[2,3-b]pyridin-3-yl)-2-methylphenyl)acrylamide] |
| ≤ 100 nM | ≤ 100 nM | 100 to 500 nM | 100 to 500 nM | ≤ 100 nM | 100 to 500 nM | 500 to 1000 nM | ≤ 100 nM | >99 % remaining after 50 min | C=CC(=O)Nc1cc(-c2c(-c3ccc(C(=O)N4CCOCC4)cc3)[nH]c3nccc(Cl)c23)ccc1C [Example 11, N-(5-(4-chloro-2-(4-(morpholine-4-carbonyl)phenyl)-1H-pyrrolo[2,3-b]pyridin-3-yl)-2-methylphenyl)acrylamide] |
